Measurements as given in ChEMBL document CHEMBL4819064, “Discovery of new pyrimidopyrrolizine/indolizine-based derivatives as P-glycoprotein inhibitors: Design, synthesis, cytotoxicity, and MDR reversal activities” (Eur J Med Chem, 2021).

Legend:
[1] = Inhibition of P-gp in mouse EMT6/AR1.0 cells assessed reduction in tritiated daunomycin efflux incubated for 2 hrs by radioactivity based assay; format: cell-based; conditions: EMT6/AR1, 2 h
[2] = test system: MCF7; test: Cytotoxicity against human MCF7 cells assessed as reduction in cell viability incubated for 72 hrs by MTT assay; format: functional, cell-based; conditions: MCF7, 72 h
[3] = Selectivity index, ratio of IC50 for human MRC5 cells to IC50 for human MCF7 cells; format: toxicity; conditions: MRC5 cells versus MCF7 cells, read-out: Ratio IC50
[4] = Selectivity index, ratio of IC50 for human MRC5 cells to IC50 for human HT29 cells; format: toxicity; conditions: MRC5 cells versus HT29 cells, read-out: Ratio IC50
[5] = test system: A2780; test: Cytotoxicity against human A2780 cells assessed as reduction in cell viability incubated for 72 hrs by MTT assay; conditions: A2780, 72 h
[6] = test system: HT-29; test: Cytotoxicity against human HT29 cells assessed as reduction in cell viability incubated for 72 hrs by MTT assay; conditions: HT-29, 72 h
[7] = test system: MRC5; test: Cytotoxicity against human MRC5 cells assessed as reduction in cell viability incubated for 72 hrs by MTT assay; conditions: MRC5, 72 h
[8] = Selectivity index, ratio of IC50 for human MRC5 cells to IC50 for human A2780 cells; format: toxicity; conditions: MRC5 cells versus A2780 cells, read-out: Ratio IC50
[9] = test system: NCI/ADR-RES; test: Cytotoxicity against human MCF7/ADR cells assessed as reduction in cell viability incubated for 72 hrs in presence of doxorubicin by MTT assay; format: functional, cell-based
[10] = test system: NCI/ADR-RES; test: Synergistic cytotoxicity against human MCF7/ADR cells assessed as combination index at 1 uM after 72 hrs in presence of 0.25 uM doxorubicin by MTT assay; format: functional
[11] = test system: NCI/ADR-RES; test: Synergistic cytotoxicity against human MCF7/ADR cells assessed as combination index at 0.25 uM after 72 hrs in presence of 0.25 uM doxorubicin by MTT assay; format: functional
[12] = test system: NCI/ADR-RES; test: Synergistic cytotoxicity against human MCF7/ADR cells assessed as combination index at 0.5 uM after 72 hrs in presence of 0.25 uM doxorubicin by MTT assay; format: functional
[13] = test system: NCI/ADR-RES; test: Synergistic cytotoxicity against human MCF7/ADR cells assessed as combination index at 0.5 uM after 72 hrs in presence of 1 uM doxorubicin by MTT assay; format: functional
[14] = test system: NCI/ADR-RES; test: Synergistic cytotoxicity against human MCF7/ADR cells assessed as combination index at 1 uM after 72 hrs in presence of 1 uM doxorubicin by MTT assay; format: functional
[15] = test system: NCI/ADR-RES; test: Synergistic cytotoxicity against human MCF7/ADR cells assessed as combination index at 0.5 uM after 72 hrs in presence of 0.5 uM doxorubicin by MTT assay; format: functional
[16] = test system: NCI/ADR-RES; test: Synergistic cytotoxicity against human MCF7/ADR cells assessed as combination index at 0.25 uM after 72 hrs in presence of 0.5 uM doxorubicin by MTT assay; format: functional
[17] = test system: NCI/ADR-RES; test: Synergistic cytotoxicity against human MCF7/ADR cells assessed as combination index at 0.25 uM after 72 hrs in presence of 1 uM doxorubicin by MTT assay; format: functional
[18] = Reversal of multidrug resistant activity in human MCF7/ADR cells assessed as reversal fold after 72 hrs by MTT assay; format: functional, NCI/ADR-RES
[19] = test system: NCI/ADR-RES; test: Synergistic cytotoxicity against human MCF7/ADR cells assessed as combination index at 1 uM after 72 hrs in presence of 0.5 uM doxorubicin by MTT assay; format: functional
[20] = test system: NCI/ADR-RES; test: Cytotoxicity against human MCF7/ADR cells assessed as reduction in cell viability incubated for 72 hrs by MTT assay
[21] = biological target: T1, P-gp (ABCB1) (Homo sapiens, UniProt P08183); test: Inhibition of P-gp activity in human MCF7/ADR cells at 250 nM after 72 hrs by RT-PCR analysis relative to control; format: cell-based, NCI/ADR-RES; conditions: MCF7/ADR cells
[22] = biological target: T1, P-gp (ABCB1); test: Inhibition of P-gp activity in human MCF7/ADR cells at 1000 nM after 72 hrs by RT-PCR analysis relative to control; format: cell-based, NCI/ADR-RES; conditions: MCF7/ADR cells
[23] = biological target: ATP-dependent translocase ABCB1 (Homo sapiens, UniProt P08183); test: Inhibition of P-gp activity in human MCF7/ADR cells after 72 hrs by RT-PCR analysis; format: cell-based; conditions: nci/adr-res, at 125 to 1000 nM, dose 125-1000 nM
[24] = biological target: T1, P-gp (ABCB1); test: Inhibition of P-gp activity in human MCF7/ADR cells at 500 nM after 72 hrs by RT-PCR analysis relative to control; format: cell-based, NCI/ADR-RES; conditions: MCF7/ADR cells
[25] = biological target: T1, P-gp (ABCB1); test: Inhibition of P-gp activity in human MCF7/ADR cells at 125 nM after 72 hrs by RT-PCR analysis relative to control; format: cell-based, NCI/ADR-RES

T1 sequence (P08183 whole entry): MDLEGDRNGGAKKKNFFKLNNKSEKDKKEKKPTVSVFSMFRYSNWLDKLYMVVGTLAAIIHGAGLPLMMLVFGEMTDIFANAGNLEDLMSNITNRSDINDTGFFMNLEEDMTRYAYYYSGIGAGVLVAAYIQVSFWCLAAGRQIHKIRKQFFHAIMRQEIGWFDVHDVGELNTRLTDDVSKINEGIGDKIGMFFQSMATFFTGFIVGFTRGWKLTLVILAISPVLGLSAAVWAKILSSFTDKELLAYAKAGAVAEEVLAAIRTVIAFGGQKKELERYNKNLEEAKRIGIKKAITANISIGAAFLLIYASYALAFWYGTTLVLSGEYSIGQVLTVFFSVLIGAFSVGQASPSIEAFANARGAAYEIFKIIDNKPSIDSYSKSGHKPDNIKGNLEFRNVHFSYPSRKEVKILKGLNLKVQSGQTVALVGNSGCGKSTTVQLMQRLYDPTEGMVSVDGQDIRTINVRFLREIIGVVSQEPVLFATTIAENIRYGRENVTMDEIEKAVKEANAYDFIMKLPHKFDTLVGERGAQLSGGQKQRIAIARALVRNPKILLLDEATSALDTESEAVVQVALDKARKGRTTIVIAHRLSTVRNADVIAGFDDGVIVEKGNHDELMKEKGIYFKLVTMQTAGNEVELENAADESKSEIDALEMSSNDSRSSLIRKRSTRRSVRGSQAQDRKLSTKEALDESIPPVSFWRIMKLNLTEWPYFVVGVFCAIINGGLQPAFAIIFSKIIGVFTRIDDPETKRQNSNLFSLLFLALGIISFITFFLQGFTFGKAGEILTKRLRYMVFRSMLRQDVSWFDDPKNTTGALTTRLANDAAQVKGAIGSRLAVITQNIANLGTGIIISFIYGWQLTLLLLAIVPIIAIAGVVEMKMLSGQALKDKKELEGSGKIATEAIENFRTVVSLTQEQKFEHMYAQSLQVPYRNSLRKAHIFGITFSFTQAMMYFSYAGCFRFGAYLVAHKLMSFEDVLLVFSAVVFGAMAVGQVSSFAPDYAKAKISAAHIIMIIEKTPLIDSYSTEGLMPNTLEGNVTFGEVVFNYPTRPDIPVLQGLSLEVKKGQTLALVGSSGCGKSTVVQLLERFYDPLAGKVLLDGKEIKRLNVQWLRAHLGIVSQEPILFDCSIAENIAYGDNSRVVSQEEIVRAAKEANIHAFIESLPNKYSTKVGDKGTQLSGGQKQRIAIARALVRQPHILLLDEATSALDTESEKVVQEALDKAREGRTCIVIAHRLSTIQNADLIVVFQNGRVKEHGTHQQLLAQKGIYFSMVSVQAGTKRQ
ATP-dependent translocase ABCB1, sequence (P08183 whole entry): as above

| Structure (SMILES) | IC50 [2] [nM] | selectivity ratio [3] | selectivity ratio [4] | IC50 [5] [nM] | IC50 [6] [nM] | IC50 [7] [nM] | selectivity ratio [8] | IC50 [9] [nM] | CI [10] | CI [11] | CI [12] | CI [13] | CI [14] | CI [15] | CI [16] | CI [17] | fold change (FC) [18] | CI [19] | IC50 [20] [nM] | other results |
| --- | --- | --- | --- | --- | --- | --- | --- | --- | --- | --- | --- | --- | --- | --- | --- | --- | --- | --- | --- | --- |
| N#Cc1c2n(c3c(SCc4ccc(Cl)cc4)ncnc13)CCCCC2 |  |  |  |  |  |  |  |  |  |  |  |  |  |  |  |  |  |  |  | IC50 [1]: > 50000 nM |
| N#Cc1c2c(n3c1CCC3)C(=O)N(c1ccc(F)cc1)CC(=O)N2 | 190 | 7.68 | 0.15 | 970 | 9710 | 1460 | 1.51 |  |  |  |  |  |  |  |  |  |  |  |  |  |
| N#Cc1c2n(c3c(=O)n(-c4ccc(Cl)cc4)cnc13)CCCC2 | 250 | 1.2 | 0.71 | 70 | 420 | 300 | 4.29 | 6330 | >100 | >100 | >100 | 0.9 | 0.21 | >100 | >100 | 0.19 | 2.88 | >100 | 37300 |  |
| COc1ccc(-n2c(=O)[nH]c3c(C#N)c4n(c3c2=O)CCC4)cc1 | 19600 | 0.71 | 33 | 15600 | 420 | 13800 | 0.88 |  |  |  |  |  |  |  |  |  |  |  |  |  |
| N#Cc1c2n(c3c(=O)n(-c4ccc(Br)cc4)cnc13)CCCC2 | 270 | 58.6 | 1.12 | 20 | 14200 | 15800 | 792 | 3070 | >100 | >100 | >100 | 0.91 | 0.1 | 1.141 | >100 | 0.2 | 5.93 | 1.53 | 20200 | inhibition at 72 h, 0.25 µM [21]: 63%; inhibition at 72 h, 1 µM [22]: 90%; inhibition (INH) [23]: Dose-Dependent Effect; inhibition at 72 h, 0.5 µM [24]: 87%; inhibition at 72 h, 0.125 µM [25]: 5% |
| O=C(Nc1ccc(F)cc1)c1c2nc[nH]c(=O)c2c2n1CCC2 | 740 | 0.23 | 0.17 | 580 | 1020 | 170 | 0.29 |  |  |  |  |  |  |  |  |  |  |  |  |  |
| Cc1nc2c(C#N)c3n(c2c(=O)n1-c1ccc(Cl)cc1)CCCC3 | 10800 | 0.14 | 0.15 | 630 | 10500 | 1540 | 2.44 |  |  |  |  |  |  |  |  |  |  |  |  |  |
| Cc1nc2c(C#N)c3n(c2c(=O)n1-c1ccc(F)cc1)CCC3 | 170 | 16.4 | 3.56 | 150 | 780 | 2780 | 18.5 | 6120 | >100 | >100 | >100 | 0.2 | 0.1 | >100 | >100 | 0.89 | 2.98 | 9.602 | 46900 |  |
| N#Cc1c2n(c3c(=O)n(-c4ccc(F)cc4)cnc13)CCC2 | 650 | 17.3 | 23.4 | 720 | 480 | 11200 | 15.6 | 2210 | >100 | >100 | >100 | 0.12 | 0.1 | 1.089 | 14.6 | 0.6 | 8.24 | 2.647 | 10300 | inhibition at 72 h, 0.25 µM [21]: 65%; inhibition at 72 h, 1 µM [22]: 92%; inhibition (INH) [23]: Dose-Dependent Effect; inhibition at 72 h, 0.5 µM [24]: 91%; inhibition at 72 h, 0.125 µM [25]: 9% |
| COc1ccc(N2CC(=O)Nc3c(C#N)c4n(c3C2=O)CCC4)cc1 | 2830 | 3.38 | 47.9 | 6280 | 200 | 9570 | 1.52 |  |  |  |  |  |  |  |  |  |  |  |  |  |
| COc1ccc(NC(=O)c2c3nc[nH]c(=O)c3c3n2CCC3)cc1 | 1430 | 1.07 | 10.9 | 15600 | 140 | 1530 | 0.1 |  |  |  |  |  |  |  |  |  |  |  |  |  |
| Cc1nc2c(C#N)c3n(c2c(=O)n1-c1ccccc1)CCCC3 | 1790 | 4.23 | 8.61 | 50 | 880 | 7580 | 152 |  |  |  |  |  |  |  |  |  |  |  |  |  |
| COc1ccc(-n2c(C)nc3c(C#N)c4n(c3c2=O)CCC4)cc1 | 80 | 216 | 108 | 70 | 160 | 17300 | 247 | 7580 | >100 | >100 | 37.214 | 0.2 | 0.3 | 2.952 | 11.363 | 0.19 | 2.4 | 5.646 | 30500 |  |
| N#Cc1c2n(c3c(=O)n(-c4ccc(F)cc4)c(=O)[nH]c13)CCC2 | 880 | 0.27 | 0.05 | 730 | 4380 | 240 | 0.33 |  |  |  |  |  |  |  |  |  |  |  |  |  |
| Cc1nc2c(C#N)c3n(c2c(=O)n1-c1ccc(Br)cc1)CCCC3 | 1650 | 2.25 | 0.35 | 160 | 10800 | 3710 | 23.2 |  |  |  |  |  |  |  |  |  |  |  |  |  |
| COc1ccc(-n2cnc3c(C#N)c4n(c3c2=O)CCC4)cc1 | 2610 | 7.88 | 1.88 | 1360 | 11000 | 20600 | 15.1 |  |  |  |  |  |  |  |  |  |  |  |  |  |
